Reference: US20240270821A1, “GIP/GLP1/GCG TRI-RECEPTOR AGONISTS AND USES THEREOF” (priority 2023, published 2024)
Where two headings read alike, the source gives them in different places. Starred links: 1 amine or outer side, 2 acyl side, 3 side chain; linkers in the order of their positions; H or OH if unused. Non-standard residues stand in square brackets, D forms with d. Residues, ends and D or L forms follow the SMILES beside them. Groups on a side chain read outwards from the residue. No end group written: not given here. *: point of attachment. C18 diacid = O=C(O)CCCCCCCCCCCCCCCCC(=O)*; αMePhe(2-F) = C[C@](N)(Cc1ccccc1F)C(=O)O; γGlu = O=C(O)[C@H](CCC(=O)[*:2])N[*:1]; αMe4Pal = C[C@](N)(Cc1ccncc1)C(=O)O; αMeY = C[C@](N)(Cc1ccc(O)cc1)C(=O)O; 3Pal = N[C@@H](Cc1cccnc1)C(=O)O; 4Pal = N[C@@H](Cc1ccncc1)C(=O)O; αMeL = CC(C)C[C@](C)(N)C(=O)O; αMeS = C[C@](N)(CO)C(=O)O; Orn = NCCC[C@H](N)C(=O)O; AEEA = NCCOCCOCC(=O)O; Aib = CC(C)(N)C(=O)O

Experiments:
Format in all cases: cell-based
[1] = biological target: T1, hGIPR (Homo sapiens, UniProt P48546); assay: Functional cAMP activity in the presence of 1% HSA; settings: read-out: cAMP Rel EC50, hGIPR
T1 sequence (P48546 22-466): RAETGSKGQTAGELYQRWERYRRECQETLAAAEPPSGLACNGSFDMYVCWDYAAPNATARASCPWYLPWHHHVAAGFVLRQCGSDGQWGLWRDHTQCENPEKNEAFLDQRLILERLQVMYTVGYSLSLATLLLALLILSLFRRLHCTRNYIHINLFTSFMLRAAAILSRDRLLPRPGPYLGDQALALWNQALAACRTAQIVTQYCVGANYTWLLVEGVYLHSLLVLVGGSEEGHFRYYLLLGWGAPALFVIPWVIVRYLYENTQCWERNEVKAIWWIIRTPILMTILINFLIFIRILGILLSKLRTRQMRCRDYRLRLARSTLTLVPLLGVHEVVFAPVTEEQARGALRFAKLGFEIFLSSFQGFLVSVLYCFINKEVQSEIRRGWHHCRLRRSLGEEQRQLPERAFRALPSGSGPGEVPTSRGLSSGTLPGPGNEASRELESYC

[2] = biological target: T2, hGLP-1R (Homo sapiens, UniProt P43220); assay: Functional cAMP activity in the presence of 1% HSA; settings: read-out: cAMP Rel EC50, hGLP-1R
[3] = biological target: human GcgR (Homo sapiens, UniProt P47871); assay: Functional cAMP activity in the presence of 1% HSA; settings: read-out: cAMP Rel EC50, hGcgR
[4] = biological target: T1, hGIPR; assay: Functional cAMP activation in the presence of 0.1% casein (no HSA); settings: read-out: Relative cAMP EC50, hGIPR;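 for Relative cAMP EC50, hGIPR: intracellular cAMP rise after 30 min at 37 °C read by HTRF against a standard curve, scaled between buffer alone (0%) and top control ligand concentration (100%), four-parameter fit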;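 for Relative cAMP EC50, hGLP-1R: intracellular cAMP rise after 30 min at 37 °C read by HTRF, normalized between buffer only (0%) and maximal control ligand (100%), four-parameter variable-slope fit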;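 for Relative cAMP EC50, hGcgR: intracellular cAMP rise after 30 min at 37 °C, read by HTRF against a cAMP standard curve, scaled from buffer only (0%) to maximal control ligand response (100%)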
[5] = biological target: T2, hGLP-1R; assay: as above; settings: read-out: Relative cAMP EC50, hGLP-1R
[6] = biological target: hGcgR (Homo sapiens, UniProt P47871); assay: as above; settings: read-out: Relative cAMP EC50, hGcgR;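 note: intracellular cAMP rise after 30 min at 37 °C, read by HTRF against a cAMP standard curve, scaled from buffer only (0%) to maximal control ligand response (100%)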
[7] = in the presence of 0.1% casein (no HSA), geometric mean
[8] = 0.1% casein, no HSA, geometric mean
[9] = HEK-293 clonal cell line, in the presence of 1% HSA, geometric mean of relative EC50

hGcgR, sequence (P47871 26-477): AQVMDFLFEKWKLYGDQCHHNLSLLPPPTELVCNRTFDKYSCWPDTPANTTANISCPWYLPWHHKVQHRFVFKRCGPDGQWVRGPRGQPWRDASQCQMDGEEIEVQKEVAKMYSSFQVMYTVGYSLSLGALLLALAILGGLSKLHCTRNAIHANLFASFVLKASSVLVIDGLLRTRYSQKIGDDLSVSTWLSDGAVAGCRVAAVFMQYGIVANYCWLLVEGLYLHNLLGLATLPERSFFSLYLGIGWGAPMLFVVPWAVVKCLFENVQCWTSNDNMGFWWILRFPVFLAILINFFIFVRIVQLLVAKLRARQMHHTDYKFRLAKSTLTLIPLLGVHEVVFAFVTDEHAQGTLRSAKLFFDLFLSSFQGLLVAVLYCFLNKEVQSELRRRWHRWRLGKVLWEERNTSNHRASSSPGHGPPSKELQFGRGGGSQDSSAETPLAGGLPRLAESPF
human GcgR, sequence (P47871 26-477): as above
T2 sequence (P43220 24-463): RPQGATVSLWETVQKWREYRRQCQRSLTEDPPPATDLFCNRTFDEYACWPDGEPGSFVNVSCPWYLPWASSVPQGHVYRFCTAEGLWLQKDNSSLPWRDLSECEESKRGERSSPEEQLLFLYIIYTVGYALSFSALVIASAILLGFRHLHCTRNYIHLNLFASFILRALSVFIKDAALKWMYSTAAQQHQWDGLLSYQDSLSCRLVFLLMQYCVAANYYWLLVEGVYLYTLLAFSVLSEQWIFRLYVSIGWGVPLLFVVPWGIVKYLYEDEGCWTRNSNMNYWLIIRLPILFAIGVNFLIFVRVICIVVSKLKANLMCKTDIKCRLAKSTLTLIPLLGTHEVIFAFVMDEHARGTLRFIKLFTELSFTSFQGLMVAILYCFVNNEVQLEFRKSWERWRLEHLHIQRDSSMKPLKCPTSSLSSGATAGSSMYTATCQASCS

Compound | EC50 [1] | EC50 [2] | EC50 [3] | EC50 [4, 7] | EC50 [5, 7] | EC50 [6, 7] | EC50 [4] | EC50 [5] | EC50 [6] | EC50 [4, 8] | EC50 [5, 8] | EC50 [6, 8] | EC50 [1, 9] | EC50 [2, 9] | EC50 [3, 9]
H-Y[Aib]QGTFTSD[4Pal]SQ[αMeL]LDKK([AEEA-γGlu-C18 diacid])AQ[αMe4Pal]AFIEYLIE[Aib]GPSSGAPPPSGSE-NH2 [Example 886] | 26.5 nM | 271 nM | 540 nM | 0.149 nM | 2.7 nM | 4.13 nM |  |  |  |  |  |  |  |  | 
H-Y[Aib]QGT[αMePhe(2-F)]TSD[4Pal][αMeS]ILLD[Orn]K([γGlu-γGlu-C18 diacid])AQ[Aib][Orn]FI[dE]YLIEGGPSSGEPPPEGTEE-NH2 [Example 556] | 5.51 nM | 47.4 nM | 366 nM |  |  |  | 0.0866 nM | 0.561 nM | 4.14 nM |  |  |  |  |  | 
H-Y[Aib]QGT[αMePhe(2-F)]TSD[4Pal][αMeS]ILLD[Orn]K([γGlu-γGlu-C18 diacid])AQ[Aib][Orn]FI[dE][αMeY]LQEGGPSSGEPPPSGAE-NH2 [Example 547] | 7.26 nM | 27.7 nM | 237 nM |  |  |  | 0.152 nM | 0.337 nM | 3.8 nM |  |  |  |  |  | 
H-Y[Aib]QGTFTSD[4Pal]S[Orn][αMeL]LD[Orn]K([γGlu-γGlu-C18 diacid])AQ[αMe4Pal]AFIE[αMe4Pal]LIE[Aib]GPSSGEPPPSGS-NH2 [Example 991] | 14.8 nM | 315 nM | 405 nM | 0.119 nM | 3.91 nM | 3.03 nM |  |  |  |  |  |  |  |  | 
H-Y[Aib]Q[dA]T[αMePhe(2-F)]TSD[4Pal][αMeS]I[αMeL]LD[Orn]K([γGlu-γGlu-C18 diacid])AQ[Aib]EFI[dE][αMeY]LIEGGPSSGAPPPSGGGE-NH2 [Example 1225] | 3.67 nM | 31.4 nM | 275 nM |  |  |  |  |  |  | 0.0531 nM | 0.399 nM | 2.45 nM |  |  | 
H-Y[Aib]QGTFTSD[4Pal]SR[αMeL]LDKK([AEEA-AEEA-γGlu-C18 diacid])AQ[αMe4Pal]AFIEYLIE[Aib]GPSSGAPPPSGS-NH2 [Example 815] | 17.9 nM | 342 nM | 798 nM | 0.181 nM | 2.79 nM | 4.13 nM |  |  |  |  |  |  |  |  | 
CC[C@H](C)[C@H](NC(=O)[C@H](Cc1ccccc1)NC(=O)[C@H](C)NC(=O)C(C)(C)NC(=O)[C@H](CCC(N)=O)NC(=O)[C@H](C)NC(=O)[C@H](CCCCNC(=O)COCCOCCNC(=O)CC[C@H](NC(=O)CCCCCCCCCCCCCCCCC(=O)O)C(=O)O)NC(=O)[C@H](CCCCN)NC(=O)[C@H](CC(=O)O)NC(=O)[C@H](CC(C)C)NC(=O)[C@H](CC(C)C)NC(=O)[C@@H](NC(=O)[C@](C)(CO)NC(=O)[C@H](Cc1cccnc1)NC(=O)[C@H](CC(=O)O)NC(=O)[C@H](CO)NC(=O)[C@@H](NC(=O)[C@](C)(Cc1ccccc1F)NC(=O)[C@@H](NC(=O)CNC(=O)[C@H](CCC(N)=O)NC(=O)C(C)(C)NC(=O)[C@@H](N)Cc1ccc(O)cc1)[C@@H](C)O)[C@@H](C)O)[C@@H](C)CC)C(=O)N[C@@H](CCC(=O)O)C(=O)N[C@@H](Cc1ccc(O)cc1)C(=O)N[C@@H](CC(C)C)C(=O)N[C@@H](CCC(=O)O)C(=O)N[C@@H](CCC(=O)O)C(=O)NCC(=O)NCC(=O)N1CCC[C@H]1C(=O)N[C@@H](CO)C(=O)N[C@@H](CO)C(=O)NCC(=O)N[C@@H](C)C(=O)N1CCC[C@H]1C(=O)N1CCC[C@H]1C(=O)N1CCC[C@H]1C(=O)N[C@@H](CCC(=O)O)C(N)=O [Example 465] (H-Y[Aib]QGT[αMePhe(2-F)]TSD[3Pal][αMeS]ILLDKK([AEEA-γGlu-C18 diacid])AQ[Aib]AFIEYLEEGGPSSGAPPPE-NH2) | 44.6 nM | 56.3 nM | 233 nM |  |  |  | 0.148 nM | 0.575 nM | 1.5 nM |  |  |  |  |  | 
H-Y[Aib]Q[dA]T[αMePhe(2-F)]TSD[4Pal][αMeS]I[αMeL]LD[Orn]K([AEEA-γGlu-C18 diacid])AQ[Aib]EFI[dE][αMeY]LIEGGPSSGAPPPSGSE-NH2 [Example 1222] | 12.4 nM | 44.8 nM | 470 nM |  |  |  |  |  |  | 0.0858 nM | 0.346 nM | 2.55 nM |  |  | 
H-Y[Aib]QGTFTSD[4Pal]S[Orn][αMeL]LD[Orn]K([γGlu-γGlu-C18 diacid])AQ[αMe4Pal]EFIE[αMeY]LLAGGPSSGAPPPSGSEE-NH2 [Example 996] |  |  |  | 0.2 nM | 98.1 nM | 14.9 nM |  |  |  |  |  |  | 11.2 nM | 4810 nM | 1160 nM
H-Y[Aib]QGT[αMePhe(2-F)]TSD[4Pal]SILLDKK([AEEA-γGlu-C18 diacid])AQ[Aib]AFIE[αMeY]LEEGGPSSGAPPPSGTGE-NH2 [Example 669] | 1.41 nM | 27.3 nM | 173 nM |  |  |  | 0.0145 nM | 0.27 nM | 1.76 nM |  |  |  |  |  | 
Y[Aib]QGTFTSD[4Pal]SQ[αMeL]LDKK([γGlu-γGlu-C18 diacid])AQ[αMe4Pal]AFIE[αMe4Pal]LIE[Aib]GPSSGAPPPSGTE-NH2 [Example 1118] | 5.45 nM | 183 nM | 802 nM | 0.128 nM | 5.42 nM | 6.52 nM |  |  |  |  |  |  |  |  | 
H-Y[Aib]QGT[αMePhe(2-F)]TSD[4Pal]SILLDKK([γGlu-γGlu-C18 diacid])AQ[Aib]AFIE[αMeY]LEEGGPSSGAPPPSGTGE-NH2 [Example 664] | 1.18 nM | 27.7 nM | 179 nM |  |  |  | 0.0159 nM | 0.356 nM | 2.12 nM |  |  |  |  |  | 
H-Y[Aib]QGT[αMePhe(2-F)]TSD[4Pal][αMeS]I[αMeL]LD[Orn]K([AEEA-γGlu-γGlu-C18 diacid])AQ[αMe4Pal]EFI[dE][αMeY]LIEGGPSSGEPPPSGE-NH2 [Example 1177] | 0.544 nM | 43.6 nM | 156 nM | 0.0114 nM | 0.681 nM | 4.23 nM |  |  |  |  |  |  |  |  | 
CC[C@H](C)[C@H](NC(=O)[C@H](Cc1ccccc1)NC(=O)[C@H](C)NC(=O)[C@](C)(Cc1ccncc1)NC(=O)[C@H](CCC(N)=O)NC(=O)[C@H](C)NC(=O)[C@H](CCCCNC(=O)CC[C@H](NC(=O)CC[C@H](NC(=O)CCCCCCCCCCCCCCCCC(=O)O)C(=O)O)C(=O)O)NC(=O)[C@H](CCCCN)NC(=O)[C@H](CC(=O)O)NC(=O)[C@H](CC(C)C)NC(=O)[C@](C)(CC(C)C)NC(=O)[C@H](CCC(N)=O)NC(=O)[C@H](CO)NC(=O)[C@H](Cc1ccncc1)NC(=O)[C@H](CC(=O)O)NC(=O)[C@H](CO)NC(=O)[C@@H](NC(=O)[C@H](Cc1ccccc1)NC(=O)[C@@H](NC(=O)CNC(=O)[C@H](CCC(N)=O)NC(=O)C(C)(C)NC(=O)[C@@H](N)Cc1ccc(O)cc1)[C@@H](C)O)[C@@H](C)O)C(=O)N[C@@H](CCC(=O)O)C(=O)N[C@@H](Cc1ccc(O)cc1)C(=O)N[C@@H](CC(C)C)C(=O)N[C@H](C(=O)N[C@@H](CCC(=O)O)C(=O)N[C@H](C)C(=O)NCC(=O)N1CCC[C@H]1C(=O)N[C@@H](CO)C(=O)N[C@@H](CO)C(=O)NCC(=O)N[C@@H](C)C(=O)N1CCC[C@H]1C(=O)N1CCC[C@H]1C(=O)N1CCC[C@H]1C(=O)N[C@@H](CO)C(=O)NCC(=O)N[C@@H](CO)C(=O)N[C@@H](CCC(=O)O)C(N)=O)[C@@H](C)CC [Example 1025] | 31.5 nM | 352 nM | 625 nM | 0.18 nM | 2.45 nM | 3.22 nM |  |  |  |  |  |  |  |  | 
